# Experimental data reported in patent publication US20230348418A1, “ISOINDOLINONE COMPOUNDS” (Monte Rosa Therapeutics, Inc., priority 2021, published 2023).
# Tests used:
# GSPT1 = GSPT1 (Homo sapiens, UniProt P15170+Q96SW2); assay: GSPT1 degradation in NCI-H1155 cells; assay type: cell-based
# Procedure: GSPT1 was degraded by compound 10 after six hours of treatment in high N-Myc NCI-H1155 and ABC-1 cells with a DC50 of 3 nM and 22 nM, respectively (x-axys represents […]M concentration of compound 10; y-axis represents the viability in %).
# NCI-H1770 = assay: N-Myc-driven mouse xenograft model, human cell line NCI-H1770 (FIG. 3C); assay type: in vivo
# IKZF1 (Ikaros) = target: T1, IKZF1 (Ikaros) (Homo sapiens, UniProt Q13422); assay: Western blot selectivity assay in MM1S cells: IKZF1; assay type: cell-based; design: key: A represents a no degradation observed at 30 μM; B represents trace degradation at 30 μM (below 20%); C represents weak degradation at 30 μM (below 50%); D represents degradation at 30 μM (>90%); E represents degradation at 3 μM (>90%); F represents degradation at 0.3 μM (>90%); conditions: MM1S cells, 0.3, 3 and 30 μM, 6 hours
# T1 construct: endogenous in cells; host or cells: MM1S (ATCC CRL-2974)
# Procedure: MM1S cells were purchased from ATCC (cat. Number CRL-2974), sub-cultured in 90% RPMI 1640 with 10% FBS, supplemented with 1×P/S and incubated at 37° C., 5% CO2. Compounds were stored as 10 mM DMSO stock. For the assay, MM1S cells (3 million cells/well) were plated in 6-well plates and incubated over night. Cells were treated with respective compounds using a serial dilution: 0.3 μM, 3 μM and 30 μM as well as a vehicle only (DMSO) control for 6 hours. Media with suspension cells was subsequently transferred to 15 mL conical tubes, wells rinsed twice with ice-cold PBS and merged with cell suspension in respective 15 mL conical tube. Cells were spinned down, supernatant aspirated, pellets resuspended in ice-cold PBS and transferred to microtubes. Cells were spinned down, supernatant aspirated and pellets resuspended in 120 μL RIPA lysis buffer supplemented with protease and phosphatase inhibitors. Cell lysates were incubated on ice for 20 minutes followed by centrifugation at >20,000×g for 5 min. Supernatants were transferred to fresh microtubes and stored at −80° C. Total protein concentration was determined using a BCA assay with a BSA standard curve and concentration of all samples was adjusted to 1 mg/mL. 25 μL 4×LDS sample buffer supplemented with 100 mM DTT was added to 75 μL sample. Samples were centrifuged (8,000×g, 1 min) and incubated at 95° C. for 5 min followed by another centrifugation step (8,000×g, 1 min). 20 μL of each sample was loaded on a 4-12% gel alongside a protein molecular weight marker. Gels were run in the presence of MOPS buffer at 80 Volts for 30 min, followed by 120 Volts for 1.5 h and proteins subsequently transferred onto nitrocellulose membranes at 20 Volts for 7 min using an iBlot2 Gel Transfer Device. Membranes were then cut horizontally into two pieces, covering 80-50 kDa and 50-25 kDa. Blocking the membranes was performed by gently shaking in 5% (w/v) skim milk in TSB-T for 1 hr at room temperature. All primary antibodies were used at a 1/1000 in 5% (w/v) BSA dissolved in TBST and incubated with membranes over night at 4° C. Anti-IKZF1 (Ikaros; D6N9Y; 14859S), anti-IKZF3 (Aiolos; D1C1E; 15103S) antibodies were purchased from Cell Signalling Technology, anti-ZFP91 antibody from Bethyl laboratories, anti-GSPT1 from Sigma Aldrich (HPA052488) and anti CK1alpha from AbCam (ab206652). After three washes with 1×TBST for 5 min, HRP-coupled secondary antibodies diluted in 5% (w/v) BSA/TBST (Goat Anti-Rb IgG, dil. 1/10,000; Goat Anti-Mouse IgG, dil. 1/5000) were added for 1 hr at room temperature. After three washes with 1×TBST (5 minutes each), membranes were incubated with ECL reagent for 1 min at room temperature. Chemiluminescence signals were then detected using a LAS-4000 system with default settings and signals quantified using Image Studio Lite software (version 5.2). Membrane parts previously incubated with antibody against CK1alpha were stripped off antibodies by incubating with stripping buffer for 30 minutes followed by three washed with TBST (5 min each), blocking with 5% (w/v) skim milk for 1 hr, and incubation with primary antibody against GAPDH overnight at 4° C. Subsequent washes, incubation with secondary antibody and signal acquisition were performed as described above.
# GSPT1, sequence (P15170 whole entry): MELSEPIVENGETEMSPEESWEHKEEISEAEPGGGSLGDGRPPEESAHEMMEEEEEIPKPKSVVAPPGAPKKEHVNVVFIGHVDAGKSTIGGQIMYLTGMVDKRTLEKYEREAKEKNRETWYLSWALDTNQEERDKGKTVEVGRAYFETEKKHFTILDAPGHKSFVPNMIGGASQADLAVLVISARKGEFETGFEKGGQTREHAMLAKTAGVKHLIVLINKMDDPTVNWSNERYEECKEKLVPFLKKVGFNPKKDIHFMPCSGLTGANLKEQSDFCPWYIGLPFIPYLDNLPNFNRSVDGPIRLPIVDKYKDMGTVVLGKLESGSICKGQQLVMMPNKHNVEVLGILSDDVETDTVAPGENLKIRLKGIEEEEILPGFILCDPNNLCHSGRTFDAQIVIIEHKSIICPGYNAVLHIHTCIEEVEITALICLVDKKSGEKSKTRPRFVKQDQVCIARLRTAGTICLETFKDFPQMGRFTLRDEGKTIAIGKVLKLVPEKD
# GSPT1, sequence (Q96SW2 whole entry): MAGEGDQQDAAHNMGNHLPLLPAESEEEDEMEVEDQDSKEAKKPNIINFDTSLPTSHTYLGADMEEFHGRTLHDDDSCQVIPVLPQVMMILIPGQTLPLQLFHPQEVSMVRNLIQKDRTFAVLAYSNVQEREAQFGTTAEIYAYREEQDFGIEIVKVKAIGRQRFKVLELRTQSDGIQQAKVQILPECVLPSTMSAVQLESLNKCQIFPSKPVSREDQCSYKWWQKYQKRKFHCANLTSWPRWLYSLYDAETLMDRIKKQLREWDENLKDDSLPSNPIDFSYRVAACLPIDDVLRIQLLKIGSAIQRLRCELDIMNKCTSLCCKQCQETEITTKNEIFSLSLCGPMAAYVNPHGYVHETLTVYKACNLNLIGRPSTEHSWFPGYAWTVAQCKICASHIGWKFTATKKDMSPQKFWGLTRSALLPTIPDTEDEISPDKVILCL
# GSPT1, sequence (Q16531 2-1140 partner limits assumed): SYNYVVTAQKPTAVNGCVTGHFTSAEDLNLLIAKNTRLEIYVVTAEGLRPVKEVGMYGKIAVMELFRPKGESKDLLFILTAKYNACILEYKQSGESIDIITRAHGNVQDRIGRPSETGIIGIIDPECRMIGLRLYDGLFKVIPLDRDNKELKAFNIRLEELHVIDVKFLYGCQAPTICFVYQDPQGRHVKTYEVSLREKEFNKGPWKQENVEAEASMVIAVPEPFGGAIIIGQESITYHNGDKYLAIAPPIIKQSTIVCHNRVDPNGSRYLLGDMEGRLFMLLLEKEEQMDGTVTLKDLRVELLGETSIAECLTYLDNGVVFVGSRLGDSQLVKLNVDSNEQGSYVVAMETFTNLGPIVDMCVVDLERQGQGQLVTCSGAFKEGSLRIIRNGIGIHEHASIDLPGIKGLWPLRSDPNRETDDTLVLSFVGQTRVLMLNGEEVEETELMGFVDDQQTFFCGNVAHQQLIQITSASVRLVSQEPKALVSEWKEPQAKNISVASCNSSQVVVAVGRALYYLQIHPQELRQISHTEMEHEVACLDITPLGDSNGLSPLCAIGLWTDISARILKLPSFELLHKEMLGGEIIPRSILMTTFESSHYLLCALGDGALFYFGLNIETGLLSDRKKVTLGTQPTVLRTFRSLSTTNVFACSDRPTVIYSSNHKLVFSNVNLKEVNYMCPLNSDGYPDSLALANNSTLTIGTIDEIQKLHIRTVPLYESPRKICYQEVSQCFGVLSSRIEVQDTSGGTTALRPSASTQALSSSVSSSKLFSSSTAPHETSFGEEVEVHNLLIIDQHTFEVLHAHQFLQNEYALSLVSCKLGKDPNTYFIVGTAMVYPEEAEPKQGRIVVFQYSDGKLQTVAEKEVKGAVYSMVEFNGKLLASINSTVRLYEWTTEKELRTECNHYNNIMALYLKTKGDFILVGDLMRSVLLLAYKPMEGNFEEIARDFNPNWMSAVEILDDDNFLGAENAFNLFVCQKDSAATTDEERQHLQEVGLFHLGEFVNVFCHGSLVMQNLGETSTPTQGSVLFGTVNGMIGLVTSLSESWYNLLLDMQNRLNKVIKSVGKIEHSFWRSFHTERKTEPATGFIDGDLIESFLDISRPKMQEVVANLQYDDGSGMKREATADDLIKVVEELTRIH
# T1 sequence (Q96SW2 whole entry partner): as the sequence (Q96SW2 whole entry) above
# T1 sequence (Q16531 2-1140 partner limits assumed): as the sequence (Q16531 2-1140 partner limits assumed) above
# T1 sequence (Q13422 whole entry): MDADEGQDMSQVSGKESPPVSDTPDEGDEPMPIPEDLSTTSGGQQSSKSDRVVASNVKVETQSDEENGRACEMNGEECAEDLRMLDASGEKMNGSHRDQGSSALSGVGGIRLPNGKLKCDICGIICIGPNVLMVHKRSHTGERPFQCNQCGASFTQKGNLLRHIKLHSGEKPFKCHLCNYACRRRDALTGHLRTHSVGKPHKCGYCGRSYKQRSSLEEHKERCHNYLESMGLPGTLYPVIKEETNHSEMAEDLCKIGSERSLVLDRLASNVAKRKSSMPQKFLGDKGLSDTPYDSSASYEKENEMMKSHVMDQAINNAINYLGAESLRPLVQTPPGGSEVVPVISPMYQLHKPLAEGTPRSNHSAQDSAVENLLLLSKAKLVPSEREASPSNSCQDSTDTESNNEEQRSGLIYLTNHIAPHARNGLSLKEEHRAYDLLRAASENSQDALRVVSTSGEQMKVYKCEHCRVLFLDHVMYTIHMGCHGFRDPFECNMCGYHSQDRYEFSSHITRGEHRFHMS
smiles,measurement,setting,value
Cc1ccc(NC(=O)OCc2ccc3c(c2)C(=O)N(C2CCC(=O)NC2=O)C3)cc1Cl (stereo not drawn) [Compound 10],extent of GSPT1 degradation,GSPT1,complete degradation
same,tumor size (tumor volume),"NCI-H1770; 3 mg/kg once daily, PO",tumor size decreased and remained so until the end of the study
same,tumor size (tumor volume),"NCI-H1770; 6 mg/kg PO, five days on and nine days off",tumor size decreased and remained so until the end of the study
same,body weight,"NCI-H1770; oral administration, NCI-H1770 xenograft",no body weight loss observed
same,tumor growth (tumor volume),"NCI-H1770; oral administration, NCI-H1770 xenograft, overall",tumor growth inhibition
same,IKZF1 degradation,IKZF1 (Ikaros),A
